This is an account of results in patent US8664257B2, “Oxygen-substituted 3-heteroaroylamino-propionic acid derivatives and their use as pharmaceuticals” (Sanofi, priority 2010, dated 2014).

Where two headings read alike, the source gives them in different places.

The test concerns the target T1, Recombinant human cathepsin A (Homo sapiens, UniProt P10619).
T1 construct: Recombinant human cathepsin A (residues 29-480, with a C-terminal 10-His tag); 10-His (C); purchased R&D Systems 1049-SE
T1 sequence (P10619 29-312 limits assumed): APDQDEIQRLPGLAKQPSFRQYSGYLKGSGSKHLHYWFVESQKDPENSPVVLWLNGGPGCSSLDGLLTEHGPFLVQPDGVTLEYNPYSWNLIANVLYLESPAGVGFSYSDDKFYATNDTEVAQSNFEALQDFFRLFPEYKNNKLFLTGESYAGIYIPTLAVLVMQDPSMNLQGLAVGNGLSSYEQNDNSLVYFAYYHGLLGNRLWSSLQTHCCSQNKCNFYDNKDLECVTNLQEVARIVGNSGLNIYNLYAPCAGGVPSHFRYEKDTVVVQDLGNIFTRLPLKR
T1 sequence (P10619 327-480 limits assumed): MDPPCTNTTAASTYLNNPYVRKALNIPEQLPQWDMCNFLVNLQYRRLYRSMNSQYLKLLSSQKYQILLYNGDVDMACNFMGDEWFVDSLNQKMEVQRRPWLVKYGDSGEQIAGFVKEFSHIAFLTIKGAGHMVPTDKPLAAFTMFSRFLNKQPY
Nature of the test: Cathepsin A inhibitory activity. In kind it is biochemical. A digest of the protocol: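 Read-out was microfluidic separation of cleaved vs. uncleaved Bodipy FL-bradykinin (2 μM), giving turnover, % inhibition and IC50. Compound and 833 ng/ml enzyme met for 15 min RT in pH 5.5 MES/DTT before substrate (15 min RT). The 29-480 His-tagged human enzyme was first activated by cathepsin L, then E-64 (10 μM).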

Where [1] appears, read: recombinant human cathepsin A 833 ng/ml, Bodipy FL-labeled bradykinin 2 μM, pH 5.5, read-out: CATH-A IC50.
[2] abbreviates: recombinant human cathepsin A, read-out: Activity (2): Cathepsin A inhibitory activity, IC50 class.

`O=C(O)CC(NC(=O)c1cc(O)n(-c2ccc(Cl)cc2)n1)c1cc(F)ccc1Cl` (stereo not shown) [Example 470, 3-(2-Chloro-5-fluoro-phenyl)-3-{[1-(4-chloro-phenyl)-5-hydroxy-1H-pyrazole-3-carbonyl]-amino}-propionic acid]: the 50% inhibitory concentration (IC50) reads like this: under setting [1], 398 nM; under setting [2], 100 to 1000 nM.

For the molecule `O=C(O)CC(NC(=O)c1cc(O)n(-c2ccc(Cl)cc2)n1)c1cccc2c1OC(F)(F)O2` (stereo not shown) [Example 471, 3-{[1-(4-Chloro-phenyl)-5-hydroxy-1H-pyrazole-3-carbonyl]-amino}-3-(2,2-difluoro-benzo[1,3]dioxol-4-yl)-propionic acid], the concentration for half-maximal inhibition (IC50) reads like this: under setting [1], 486 nM; under setting [2], 100 to 1000 nM.

With `O=C(O)CC(NC(=O)c1cc(O)n(-c2ccc(Cl)cc2)n1)c1cc(F)ccc1F` (stereo not shown) [Example 472, 3-{[1-(4-Chloro-phenyl)-5-hydroxy-1H-pyrazole-3-carbonyl]-amino}-3-(2,5-difluoro-phenyl)-propionic acid], the half-inhibitory concentration (IC50) is 4090 nM under setting [1] and 1000 to 30000 nM under setting [2].

For the molecule `O=C(O)CC(NC(=O)c1cc(O)n(-c2ccc(Cl)cc2)n1)c1cc(F)ccc1C(F)(F)F` (stereo not shown) [Example 473, 3-{[1-(4-Chloro-phenyl)-5-hydroxy-1H-pyrazole-3-carbonyl]-amino}-3-(5-fluoro-2-trifluoromethyl-phenyl)-propionic acid], the concentration for half-maximal inhibition (IC50) was 1730 nM under setting [1] and 1000 to 30000 nM under setting [2].

As to `O=C(O)C[C@H](NC(=O)c1cc(O)n(-c2ccc(Cl)cc2)n1)c1ccccc1Cl` [Example 474, (S)-3-(2-Chloro-phenyl)-3-{[1-(4-chloro-phenyl)-5-hydroxy-1H-pyrazole-3-carbonyl]-amino}-propionic acid], the IC50 was 207 nM under setting [1] and 100 to 1000 nM under setting [2].

Consider `O=C(O)CC(NC(=O)c1cc(O)n(-c2ccccc2F)n1)c1cc(F)ccc1Cl` (stereo not shown) [Example 475, 3-(2-Chloro-5-fluoro-phenyl)-3-{[1-(2-fluoro-phenyl)-5-hydroxy-1H-pyrazole-3-carbonyl]-amino}-propionic acid], for which the IC50 under setting [1] was 137 nM and the half-maximal inhibitory concentration (IC50) under setting [2] is 100 to 1000 nM.

Turning to `O=C(O)CC(NC(=O)c1cc(O)n(-c2ccccc2F)n1)c1cccc2c1OC(F)(F)O2` (stereo not shown) [Example 476], the IC50 under setting [2] was in the range of 100 to 1000 nM.

With `O=C(O)CC(NC(=O)c1cc(O)n(-c2ccccc2F)n1)c1cc(F)ccc1C(F)(F)F` (stereo not shown) [Example 477], the 50% inhibitory concentration (IC50) under setting [2] lay in the range of 100 to 1000 nM.

For the molecule `Cc1ccc(F)cc1C(CC(=O)O)NC(=O)c1cc(O)n(-c2ccccc2F)n1` (stereo not shown) [Example 478], under setting [2], the half-maximal inhibitory concentration (IC50) was < 100 nM.

With `O=C(O)CC(NC(=O)c1cc(O)n(-c2ccccc2F)n1)c1cc(Cl)ccc1Cl` (stereo not shown) [Example 479], the IC50 under setting [2] was < 100 nM.

Turning to `Cc1ccc([C@H](CC(=O)O)NC(=O)c2cc(O)n(-c3ccccc3F)n2)cc1` [Example 480], the IC50 under setting [2] fell in the range of 100 to 1000 nM.

In the case of `O=C(O)CC(NC(=O)c1cc(O)n(-c2ccccc2F)n1)c1ccc(-c2ccccn2)cc1` (stereo not shown) [Example 481], the IC50 under setting [2] lay in the range of 100 to 1000 nM.

`Cc1c(F)cccc1C(CC(=O)O)NC(=O)c1cc(O)n(-c2cccc(F)c2)n1` (stereo not shown) [Example 482]: under setting [2], the IC50 lay in the range of 100 to 1000 nM.

For `O=C(O)CC(NC(=O)c1cc(O)n(-c2cccc(F)c2)n1)c1cc(F)ccc1Cl` (stereo not shown) [Example 483], the IC50 under setting [2] is 100 to 1000 nM.

Consider `O=C(O)CC(NC(=O)c1cc(O)n(-c2cccc(F)c2)n1)c1cccc2c1OC(F)(F)O2` (stereo not shown) [Example 484], for which the IC50 under setting [2] was 100 to 1000 nM.

For the molecule `O=C(O)CC(NC(=O)c1cc(O)n(-c2cccc(F)c2)n1)c1cc(F)ccc1F` (stereo not shown) [Example 485], the half-inhibitory concentration (IC50) under setting [2] fell in the range of 100 to 1000 nM.

For the molecule `O=C(O)CC(NC(=O)c1cc(O)n(-c2cccc(F)c2)n1)c1cc(F)ccc1C(F)(F)F` (stereo not shown) [Example 486], the IC50 under setting [2] was in the range of 100 to 1000 nM.

For the molecule `Cc1ccc(F)cc1C(CC(=O)O)NC(=O)c1cc(O)n(-c2cccc(F)c2)n1` (stereo not shown) [Example 487], under setting [2], the IC50 is 100 to 1000 nM.

On to `O=C(O)CC(NC(=O)c1cc(O)n(-c2cccc(F)c2)n1)c1cc(Cl)ccc1Cl` (stereo not shown) [Example 488], for which the half-inhibitory concentration (IC50) under setting [2] fell in the range of 100 to 1000 nM.

For `Cc1ccc([C@H](CC(=O)O)NC(=O)c2cc(O)n(-c3cccc(F)c3)n2)cc1` [Example 489], under setting [2], the IC50 was 100 to 1000 nM.

`CN(C)c1ccc(C(CC(=O)O)NC(=O)c2cc(O)n(-c3ccc(F)cc3)n2)c(Cl)c1` (stereo not shown) [Example 490]: the concentration for half-maximal inhibition (IC50) under setting [2] was 1000 to 30000 nM.

For the molecule `O=C(O)CC(NC(=O)c1cc(O)n(-c2ccc(F)cc2)n1)c1cccc2c1OC(F)(F)O2` (stereo not shown) [Example 491], under setting [2], the IC50 lay in the range of 100 to 1000 nM.

On to `Cc1ccc(F)cc1C(CC(=O)O)NC(=O)c1cc(O)n(-c2ccc(F)cc2)n1` (stereo not shown) [Example 492, 3-(5-Fluoro-2-methyl-phenyl)-3-{[1-(4-fluoro-phenyl)-5-hydroxy-1H-pyrazole-3-carbonyl]-amino}-propionic acid], for which the IC50 under setting [1] is 175 nM and the 50% inhibitory concentration (IC50) under setting [2] lay in the range of 100 to 1000 nM.

On to `O=C(O)CC(NC(=O)c1cc(O)n(-c2ccc(F)cc2)n1)c1cc(Cl)ccc1Cl` (stereo not shown) [Example 493, 3-(2,5-Dichloro-phenyl)-3-{[1-(4-fluoro-phenyl)-5-hydroxy-1H-pyrazole-3-carbonyl]-amino}-propionic acid], for which the concentration for half-maximal inhibition (IC50) under setting [1] turned out to be 246 nM and the IC50 under setting [2] was 100 to 1000 nM.

With `Cc1c(F)cccc1C(CC(=O)O)NC(=O)c1cc(O)n(-c2ccccc2)n1` (stereo not shown) [Example 494, 3-(3-Fluoro-2-methyl-phenyl)-3-[(5-hydroxy-1-phenyl-1H-pyrazole-3-carbonyl)-amino]-propionic acid], the half-maximal inhibitory concentration (IC50) is 142 nM under setting [1] and 100 to 1000 nM under setting [2].

Consider `O=C(O)CC(NC(=O)c1cc(O)n(-c2ccccc2)n1)c1cc(F)ccc1Cl` (stereo not shown) [Example 495, 3-(2-Chloro-5-fluoro-phenyl)-3-[(5-hydroxy-1-phenyl-1H-pyrazole-3-carbonyl)-amino]-propionic acid], for which the 50% inhibitory concentration (IC50) is, setting by setting: under setting [1], 213 nM; under setting [2], 100 to 1000 nM.

In the case of `O=C(O)CC(NC(=O)c1cc(O)n(-c2ccccc2)n1)c1cccc2c1OC(F)(F)O2` (stereo not shown) [Example 496, 3-(2,2-Difluoro-benzo[1,3]dioxol-4-yl)-3-[(5-hydroxy-1-phenyl-1H-pyrazole-3-carbonyl)-amino]-propionic acid], the IC50 under setting [1] was 167 nM and the concentration for half-maximal inhibition (IC50) under setting [2] lay within 100 to 1000 nM.

As for `Cc1ccc(F)cc1C(CC(=O)O)NC(=O)c1cc(O)n(-c2ccccc2)n1` (stereo not shown) [Example 497, 3-(5-Fluoro-2-methyl-phenyl)-3-[(5-hydroxy-1-phenyl-1H-pyrazole-3-carbonyl)-amino]-propionic acid], the concentration for half-maximal inhibition (IC50) by setting is: under setting [1], 145 nM; under setting [2], 100 to 1000 nM.

Regarding `COc1ccc(F)cc1C(CC(=O)O)NC(=O)c1cc(O)n(-c2ccccc2)n1` (stereo not shown) [Example 498, 3-(5-Fluoro-2-methoxy-phenyl)-3-[(5-hydroxy-1-phenyl-1H-pyrazole-3-carbonyl)-amino]-propionic acid], the IC50 runs as follows: under setting [1], 143 nM; under setting [2], 100 to 1000 nM.

On to `O=C(O)CC(NC(=O)c1cc(O)n(-c2ccccc2)n1)c1ccc(-c2ccccn2)cc1` (stereo not shown) [Example 499, 3-[(5-Hydroxy-1-phenyl-1H-pyrazole-3-carbonyl)-amino]-3-(4-pyridin-2-yl-phenyl)-propionic acid; compound with trifluoro-acetic acid], for which the concentration for half-maximal inhibition (IC50) under setting [1] amounted to 147 nM and the IC50 under setting [2] was in the range of 100 to 1000 nM.

For `O=C(O)CC(NC(=O)c1cc(O)n(-c2ccc(F)cc2F)n1)c1cc(Cl)ccc1Cl` (stereo not shown) [Example 500, 3-(2,5-Dichloro-phenyl)-3-{[1-(2,4-difluoro-phenyl)-5-hydroxy-1H-pyrazole-3-carbonyl]-amino}-propionic acid], the half-maximal inhibitory concentration (IC50) is, setting by setting: under setting [1], 86.3 nM; under setting [2], < 100 nM.

`O=C(O)CC(NC(=O)c1cc(O)n(-c2ccc(F)cc2F)n1)c1ccc(-c2ccccn2)cc1` (stereo not shown) [Example 501]: the IC50 under setting [2] was < 100 nM.

On to `O=C(O)C[C@H](NC(=O)c1cc(O)n(-c2ccc(F)cc2F)n1)c1ccccc1Cl` [Example 502, (S)-3-(2-Chloro-phenyl)-3-{[1-(2,4-difluoro-phenyl)-5-hydroxy-1H-pyrazole-3-carbonyl]-amino}-propionic acid], for which the IC50 under setting [1] turned out to be 116 nM and the IC50 under setting [2] is 100 to 1000 nM.

On to `O=C(O)CC(NC(=O)c1cc(O)n(-c2ccccc2Cl)n1)c1cccc2c1OC(F)(F)O2` (stereo not shown) [Example 503, 3-{[1-(2-Chloro-phenyl)-5-hydroxy-1H-pyrazole-3-carbonyl]-amino}-3-(2,2-difluoro-benzo[1,3]dioxol-4-yl)-propionic acid], for which the IC50 is 391 nM under setting [1] and 100 to 1000 nM under setting [2].

`COc1ccc(F)cc1C(CC(=O)O)NC(=O)c1cc(O)n(-c2ccccc2Cl)n1` (stereo not shown) [Example 504, 3-{[1-(2-Chloro-phenyl)-5-hydroxy-1H-pyrazole-3-carbonyl]-amino}-3-(5-fluoro-2-methoxy-phenyl)-propionic acid]: the IC50 by setting is: under setting [1], 123 nM; under setting [2], 100 to 1000 nM.

Turning to `O=C(O)CC(NC(=O)c1cc(O)n(-c2ccccc2Cl)n1)c1ccc(N2CCOCC2)cc1` (stereo not shown) [Example 505, 3-{[1-(2-Chloro-phenyl)-5-hydroxy-1H-pyrazole-3-carbonyl]-amino}-3-(4-morpholin-4-yl-phenyl)-propionic acid], the IC50 is 29800 nM under setting [1] and 1000 to 30000 nM under setting [2].
